# According to a melting point compilation (Tetko et al.; mined from patent text by program, amines drawn as free bases though some values may be those of a salt):
row,Structure (SMILES),melting point [°C]
1,O=C(CBr)Nc1ccc(Cl)cc1C(=O)c1ccc(O)cc1,201 to 203
2,CC(C)(C)OC(=O)[C@@H]1CS[C@H](c2ccccc2)N1C(=O)CNC(=O)Nc1cccc(CCO)c1,164
3,N#CCCNC(=O)Nc1cc(N2CC(c3ccccc3)CC2=O)ccn1 (stereo not drawn),260 to 263
4,CS(=O)(=O)CCCCC(C1CCCCC1)S(=O)(=O)c1ccc(Cl)cc1 (stereo not drawn),104 to 106
5,O=C(O)c1ccc(COc2ccc3cc(-c4ccc(-c5ccccc5)[nH]4)ccc3c2)c(C(=O)O)c1,289 to 291
6,COc1cc(CCNC(=O)C(NC(=O)OC(C)(C)C)C(C)C)ccc1OCC#Cc1ccc(Cl)cc1 (stereo not drawn),141 to 142
7,Cc1cc(Cl)nc2ccc(Br)cc12,139 to 140
8,Cc1cc(C)c2c(c1O)C(=O)C1CCCCC21 (stereo not drawn),64 to 65
9,COc1cc(Cl)ccc1C(=O)Nc1ccc(C(=O)N2Cc3cccn3Cc3ccccc32)cc1,222 to 224
10,C=CCn1c(=O)[nH]c(=O)n(-c2cc(N3C(=O)C4=C(CCCC4)C3=O)c(F)cc2Cl)c1=O,130 to 145
11,COc1ccc(C(=O)C(CCc2cccc(OC)c2)c2ccccc2)cc1 (stereo not drawn),79 to 85
12,O=C1NC(=O)c2c1c(-c1ccccc1Cl)cc1c2c(Cl)c(CO)n1CCCO,218 to 219
13,O=C(Nc1cc(Cl)ccc1S(=O)(=O)c1ccc(Cl)cc1)N[C@@H](Cc1ccc(NC(=O)c2c(Cl)cccc2Cl)cc1)C(=O)O,239
14,COc1ncccc1C(=O)NC1CN(C)CCn2c1nc(-c1ccncn1)cc2=O (racemic),228 to 230
15,CC(C=Cc1ccccc1)NC(=O)c1ccccc1 (racemic),135
16,COc1ccc([N+](=O)[O-])cc1N1CCN(C(=O)OC(C)(C)C)CC1,136 to 137
17,CC(C)c1cccc(C(C)C)c1NC(=O)C1CC(c2ccc(F)cc2)OC1=O (stereo not drawn),203 to 205
18,"Cc1cn(C2CCN(c3c(F)cc4c(=O)c(C(=O)O)cn5c4c3OCC5C)C2)nn1 (single isomer, unassigned; (-))",241 to 242
19,CCCC(=O)Nc1cc(/C=C/C(=O)OC)n(C)c1,109 to 110

row,Structure (SMILES),melting point [°C]
1,COC(=O)c1cc(OCCCOc2ccccc2-c2ccccc2)cc(OCCCOc2ccccc2-c2ccccc2)c1,77 to 79
2,N#Cc1ccc(COc2cccc(F)c2)cc1,69 to 70
3,CC(C)c1ccnc(NC(=S)NCCC2=CCCCC2)c1,105 to 106
4,COc1c(C)cnc(CSc2nc3cc4c(cc3[nH]2)OC(F)C(F)(F)O4)c1C (stereo not drawn),138 to 140
5,CCCCCCCCCCCCSC(C)Cn1ccnc1 (stereo not drawn),79.5 to 81
6,CC(=O)NCCc1coc2ccc3c(c12)OCCO3,112
7,Cc1cc(-c2cnn3c(C(F)(F)F)cc(-c4ccc(F)c(Cl)c4)nc23)ccn1,292
8,Clc1cccc(C(c2ccc3[nH]cnc3c2)n2ccnc2)c1 (stereo not drawn),108
9,CCSc1c(C=O)c(=O)n(C)c(=O)n1C,72
10,Cc1nc(OCCCc2cc(OC(C)C)nn2Cc2ccc(Cl)cc2Cl)c(CC(=O)O)s1,75 to 77
11,N#Cc1c[nH]c2ccc([N+](=O)[O-])cc12,186 to 190
12,Brc1ccc(N2CCN(CCCOc3ccc(C4=NCCO4)cc3)CC2)nn1,169
13,CCCNc1nc(C)c(CCCl)c(=O)n1C,150
14,CN(Cc1ccccc1)Cc1c(-c2ccc(N)cc2)sc2c1c(=O)n(-c1ccccc1)c(=O)n2Cc1c(F)cccc1F,205 to 207
15,COc1cc2sc(C(N)=O)cc2c(Cl)c1OC,180 to 182
16,Cc1cc(SCN2C(=O)c3ccccc3C2=O)cc(C(C)(C)C)c1O,114 to 116
17,CCCN1CCc2c(cccc2NC(=O)c2ccc(OC)cc2)C1,162 to 164
18,CC(C)c1nn(-c2nc3ccccc3s2)c(-c2ccc(F)cc2)c1Br,146 to 147
19,CC(F)c1nc[nH]c(=O)c1Cl (stereo not drawn),190 to 191
